# According to article PMC7463999, “Antioxidant, Anti-inflammatory and Neuroprotective Profiles of Novel 1,4-Dihydropyridine Derivatives for the Treatment of Alzheimer’s Disease” (Antioxidants, 2020):
# “And” between values parts separate entries of the source, which are not always exact repeats. Identical values can stand only once. Like-named read-outs stand apart in the source and are kept apart here.
# Columns and labels:
# [1] = Oxygen Radical Absorbance Capacity (ORAC) assay; settings: Trolox equivalents, ORAC of Trolox = 1.0; AAPH, fluorescein
# DPPH reduction assay = settings: DPPH 100 µM, 1 h in the dark
# Experimental: The final solution was incubated during 1 h in the dark. […] Results are expressed as a percentage of DPPH reduction by subtracting blank absorbance (Absblank) to sample absorbance (Abssample) and corrected by control absorbance, (Abscontrol, DPPH alone, as expressed below: % DPPH reduction = [100 − ((Abssample − Absblank) × 100/Abscontrol)](1)
# Briefly, the compounds under assay (150 µL) at the desired concentration (1, 10, 60 and 100 µM) in methanol/water (80/20) were added to a solution of DPPH in methanol/water (80/20) (150 µL, 100 µM), in a clear bottom 96-well plate, and the final solution was incubated 1 h in the dark. Then, DPPH absorbance of blank (methanol/water), control
# Optima plate-reader (BMG Labtech, Ortenberg, Germany) in duplicate.
# Results are expressed as % of absorbance (Abs) reduction of control after subtracting blank absorbance, as expressed
# % DPPH reduction = [100 – (Abssample-Absblank) x 100]/Abscontrol
# [2] = test system: primary glial cultures stimulated with LPS; assay: Nitrite production reduction (Griess) in LPS-stimulated mixed primary glial cultures; assay type: cell-based, rat
# [3] = test system: voltage-dependent Ca^2+ channels (VDCC); assay: Voltage dependent calcium channels blockade assay (Fluo-4, 70 mM K+); assay type: cell-based, human; settings: compounds at 10 μM, SH-SY5Y, basal = 100% response
# Experimental: Free cytosolic Ca^2+ was measured using the fluorescence Ca^2+ indicator Fluo-4/AM. SH-SY5Y cells were seeded in 96-well black bottom transparent plates at a density of 60,000 cells per well and cultured until they reach confluence. Cells were incubated with the Ca^2+ sensitive dye Fluo-4/AM at 5 µM in Krebs-HEPES buffer (KH) (145 mM NaCl, 4.9 mM KCl, 1.2 mM MgCl2, 2 mM CaCl2, 10 mM HEPES, 11 mM glucose, pH 7.4), and 0.05% pluronic acid, for 1 h at 37 °C in the dark. Then, cells were washed twice with KH solution to remove the excess of probe and compounds in solution were added. Test compounds at 10 µM were incubated 10 min before K^+ 70 mM was applied to trigger cytosolic Ca^2+ increase. Fluorescence was measured in a fluorescence microplate reader (FLUOstar Optima, BMG, Ortenberg, Baden-Wuerttemberg, Germany) at excitation and emission wavelengths 485 and 520 nm, respectively. To normalize Fluo-4 signals, Triton X-100 (5%) and subsequently MnCl2 1 M were applied to the cells to register maximal and minimal fluorescence, respectively. Data were calculated as a percentage of Fluorescence increment with respect to Fmax − Fmin. The percentage of response was calculated considering basal conditions as 100% response.
# Voltage dependent Calcium Channel Blockade Assay
# Free cytosolic Ca2+ was measured using the fluorescence Ca2+ indicator Fluo-4/AM.
# SH-SY5Y cells were seeded in 96-well black bottom transparent plates at a density of 60,000 cells per well until reaching confluence. Cells were incubated with the Ca2+ sensitive dye fluo-4 AM at 5 µM in Krebs-Hepes buffer (KH) (145 mM NaCl, 4.9 mM KCl, 1.2 mM MgCl2, 2 mM CaCl2, 10 mM HEPES, 11 mM glucose, pH 7.4), and 0.05 % pluronic acid, for 1 h at 37 °C in the dark. Then, cells were washed twice with KH solution to remove the excess of probe and compounds in solution were added. Tested compounds at 10 µM were incubated 10 min before K+ 70 mM was applied to evoke the increment of cytosolic Ca2+. The experiments were analyzed at excitation and emission wavelengths of 485 and 520 nm, respectively, and fluorescence was measured in a fluorescence microplate reader (FLUOstar Optima, BMG, Germany). To normalize Fluo-4 signals, Triton X-100 (5 %) and subsequently MnCl2 1 M were applied to cells for registering both maximal and minimal fluorescence, respectively. Data were calculated as % F increment respect to Fmax – Fmin. % of blockade was calculated considering basal conditions as 100 % response.
# Then, the donor filter plate was carefully put on the acceptor plate to form a “sandwich”, which was left undisturbed for 4 h at 25 °C. During this time, the compounds diffused from the donor plate through the polar brain lipid membrane (area = 0.28 cm2) into the acceptor plate. After incubation, the donor plate was carefully removed. UV plate reader determined the concentration of compounds and commercial drugs in both acceptor and […]
# [4] = Blood-brain barrier permeation assay (PAMPA), porcine brain lipid; assay type: in vitro ADME
# [5] = test system: blood-brain barrier (passive diffusion); assay: as above; assay type: in vitro ADME; settings: PAMPA; 100 µM, PBS pH 7.4, 4 h at 25 °C, mean ± SEM; read-out: PAMPA Pe
# rat hippocampal slices = assay: ROS production (H2DCFDA) in rat hippocampal slices treated with okadaic acid; assay type: cell-based; settings: OA 1 μM + compound 10 μM, 6 h
# [6] = test system: neuroblastoma cell line SH-SY5Y; assay: Cytotoxicity (neurotoxicity) in SH-SY5Y, MTT; settings: 24 h
# Experimental: LD50 in SH-SY5Y and primary glial culture cells
# (§1) cell line SH-SY5Y and primary glial cultures. Viability was measured as
# (§2) MTT reduction in presence of increasing concentrations of derivatives.
# (§3) Values are expressed as LD50 calculated from dose-response curves of four
# (§4) different concentrations. Data are expressed as mean  SEM of five
# different experiments in triplicate.
# (§5) SH-SY5Y or primary glial cells were cultured in 96-well plates for 24 h. Then, cells
# (§6) were treated with the compounds at 10, 30 and 100 µM in the corresponding culture media
# (§7) with 1 % FBS After 24 h, cell viability was assessed by the MTT-reduction assay. Control
# (§8) cells were incubated with the same concentration of DMSO (0.1 % final concentration)
# Viability assay by MTT-reduction
# (§9) SH-SY5Y, primary glial culture cells and rat hippocampal slices viability was
# (§10) measured by the MTT assay [11]. This method is based on the cleavage of the tetrazolium
# (§11) ring of MTT by active dehydrogenases, generating a formazan precipitate. At the end of
# (§12) the neuroprotection or toxicity experiments, an MTT solution was added to each well to
# (§13) reach a final concentration of 0.5 mg/mL. After 2 additional hours of incubation, the
# (§14) solution was replaced by 100 or 300 µL of DMSO to solubilize the formazan precipitate.
# (§15) in control cells was considered as 100 % of cell survival and used to reference all
# GSK-3β = GSK-3β (Homo sapiens, UniProt P49841); assay: GSK-3β inhibition, Kinase-Glo luminescence assay
# primary glial cultures = assay: Cytotoxicity (gliotoxicity) in primary glial cultures, MTT; settings: 24 h
# Experimental: as §1, §2, §3, §4
# different experiments in triplicate.
# Mixed glial cultures were obtained from cerebral cortex of 2-5-day-old Sprague-Dawley rats. After removal of blood vessels and meninges, the forebrains were dissociated in DMEM/F12 medium. After mechanical dissociation, cells were plated (3x10^5 cells/ml) in DMEM/F12 medium with 20 % fetal bovine serum (FBS) and 1 % penicillin/streptomycin (10,000 units), at 37 °C and in a 5 % CO2-supplemented air atmosphere. After 5 days, medium was substituted by DMEM/F12 medium with 10 %
# FBS. Cells were cultured for 7-10 days before treatment.
# as §5, §6, §7, §8
# Viability assay by MTT-reduction
# as §9
# measured by the MTT assay [11].
# [7] = test system: SH-SY5Y human neuroblastoma cells; assay: Neuroprotection against okadaic acid (tau hyperphosphorylation), MTT; settings: Homo sapiens, SH-SY5Y, 18 h, read-out: cell viability (percentage survival), okadaic acid toxicity
# Experimental: (§16) Cells were pre-incubated with the corresponding compound at 1 μM in neuroblastoma culture medium. After 24 h, the medium was removed and replaced with 1% FBS neuroblastoma culture media containing the corresponding compound at 1 µM and the toxic stimuli, namely a mixture of rotenone and oligomycin A (R/O, 30 μM/10 μM, respectively), okadaic acid (OA) at 20 nM or a high concentration of KCl (70 mM). Cells were co-incubated for further 24 h with the R/O mixture or KCl solution, or 18 h with the OA solution. […] Control cells were incubated with the same amount of dimethyl sulfoxide (DMSO) without any drug. After the co-incubation period, cell viability was assessed by the 3-(4,5-dimethylthiazol-2-yl)-2,5-diphenyltetrazolium bromide (MTT) reduction method [56]; basal condition was considered as 100% survival.
# (§17) Neuroprotection in the SH-SY5Y neuroblastoma cell line
# (§18) A pre- and co-incubation protocol was followed. Cells were pre-incubated with the
# (§19) corresponding compound at 1 M in neuroblastoma culture medium. After 24 h, the
# (§20) medium was removed and replaced with 1% FBS neuroblastoma culture media
# (§21) containing the corresponding compound at 1 µM and the toxic stimuli, namely a mixture
# (§22) of rotenone and oligomycin A (30 M/10 M respectively), okadaic acid at 20 nM or a
# (§23) high concentration of potassium chloride (70 mM). Cells were co-incubated for further
# (§24) 24 h with the rotenone and oligomycin A or potassium chloride solution, or 18 h with the
# (§25) okadaic acid solution. Control cells were incubated with the same amount of DMSO
# (§26) and reference compounds in the rotenone-oligomycin A, okadaic acid or high
# (§27) concentration of potassium models respectively. After the co-incubation period, cell
# (§28) viability was assessed by the MTT-reduction method [11] considering basal conditions
# Viability assay by MTT-reduction
# as §9, §10, §11, §12, §13, §14, §15
# (§29) treatments. The percentage of protection was calculated as follows: the percentage of cell
# (§30) survival obtained with the toxic stimuli-treated cells subtracted to 100 was normalized to
# (§31) 100 % of cell death. The percentage of protection was obtained by subtracting the
# (§32) percentage of cell death in presence of the tested compound to 100 %.
# [8] = test system: SH-SY5Y human neuroblastoma cells; assay: Neuroprotection against rotenone/oligomycin A (oxidative stress), MTT; settings: 1 μM, rotenone 30 μM / oligomycin A 10 μM, 24 h
# Experimental: as §16, §17, §18, §19, §20, §21, §22, §23, §24, §25, §26, §27, §28
# Viability assay by MTT-reduction
# as §9, §10, §11, §12, §13, §14, §15, §29, §30, §31, §32
# [9] = test system: primary glial cultures stimulated with LPS; settings: read-out: EC50 Nitrite Reduction; LPS 1 μg/mL; cited from earlier work
# GSK-3β, sequence (P49841 whole entry): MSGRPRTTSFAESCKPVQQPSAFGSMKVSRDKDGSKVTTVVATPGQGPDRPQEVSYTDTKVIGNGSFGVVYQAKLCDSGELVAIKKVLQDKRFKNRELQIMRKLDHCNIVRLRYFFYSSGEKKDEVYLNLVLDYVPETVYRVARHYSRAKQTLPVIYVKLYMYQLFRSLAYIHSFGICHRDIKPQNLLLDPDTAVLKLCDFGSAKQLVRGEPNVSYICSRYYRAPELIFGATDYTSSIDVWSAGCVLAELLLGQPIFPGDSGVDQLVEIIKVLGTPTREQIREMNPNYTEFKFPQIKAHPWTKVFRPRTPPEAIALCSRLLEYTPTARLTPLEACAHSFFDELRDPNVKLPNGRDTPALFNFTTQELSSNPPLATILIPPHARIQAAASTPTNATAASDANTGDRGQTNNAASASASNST
SMILES,ORAC (T. Eq.) [1],IC50 (DPPH reduction assay),"EC50 ([2]; Rattus norvegicus, LPS 1 μg/mL, 24 h pre-incubation, 18 h co-incubation)",fold more potent as anti-inflammatory than 4f ([2]; ratio of nitrite reduction EC50 values),VDCC % Response [3],PAMPA Prediction ([4]; BBB permeability class from Pe),BBB permeation prediction in words ([4]; PAMPA),"Papp at 4 h, 100 µM [5]",free radical production (H2DCFDA fluorescence) (rat hippocampal slices),SH-SY5Y LD50 [6],IC50 (GSK-3β),Ki (GSK-3β),Glial cultures LD50 (primary glial cultures),viability at 1 µM [7],"percentage of protection, R/O toxicity [8]",EC50 [9]
"Cc1[nH]nc2c1C(c1ccc(Br)cc1)C(C#N)=C(N)N2 (stereo not shown) [4g, 6-amino-4-(4-bromophenyl)-3-methyl-4,7-dihydro-2H-pyrazolo[3,4-b]pyridine-5-carbonitrile]",0.96 T. Eq. and 0.96 ± 0.05 T. Eq.,24100 ± 3740 nM,4500 ± 600 nM,2.2 fold,62% and 62.1 ± 1.6%,CNS+,predicted to cross the BBB,7.2 ± 2.4 ×10⁻⁶ cm/s,reduced free radical production to basal conditions,> 100 µM,2350 ± 1100 nM,1650 nM,> 100 µM,86.7%,59.7%,
C[S+]([O-])CCCCN=C=S (stereo not shown) [Sulforaphane],,,,,,,,,,,,,,,,1400 ± 300 nM
